Assay results: publication PMC7083565, “In vitro metabolism, reaction phenotyping, enzyme kinetics, CYP inhibition and induction potential of ataluren” (Pharmacology Research & Perspectives, 2020)

Legend:
[1] = target: T1, UGT1A7 (Homo sapiens, UniProt Q9HAW7); experiment: Reaction phenotyping with recombinant human UGT enzymes: UGT1A7; format: in vitro ADME; conditions: rUGT1A7 0.25 mg protein/mL, 10 μmol/L, 60 minutes, n = 2
T1 construct: purchased BD Biosciences; host or cells: baculovirus-infected insect cells
T1 sequence (Q9HAW7 26-530): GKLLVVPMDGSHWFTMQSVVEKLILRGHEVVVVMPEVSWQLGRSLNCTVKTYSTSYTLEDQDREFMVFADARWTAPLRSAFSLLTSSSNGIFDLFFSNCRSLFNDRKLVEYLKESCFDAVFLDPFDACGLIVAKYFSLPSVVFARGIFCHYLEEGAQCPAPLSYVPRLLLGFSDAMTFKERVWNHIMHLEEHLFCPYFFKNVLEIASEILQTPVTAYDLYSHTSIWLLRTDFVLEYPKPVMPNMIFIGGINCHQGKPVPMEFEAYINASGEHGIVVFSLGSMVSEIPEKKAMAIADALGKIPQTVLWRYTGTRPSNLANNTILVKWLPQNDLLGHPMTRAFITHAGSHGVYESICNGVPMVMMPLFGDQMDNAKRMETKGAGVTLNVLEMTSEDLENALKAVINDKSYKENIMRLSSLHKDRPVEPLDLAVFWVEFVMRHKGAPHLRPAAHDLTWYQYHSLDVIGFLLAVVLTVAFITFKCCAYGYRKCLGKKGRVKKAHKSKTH
Protocol: Ataluren at 10 μmol/L, was incubated (n = 2) with recombinant human uridine diphosphate glucuronosyltransferase (rUGT) enzymes: rUGTs 1A1, 1A3, 1A4, 1A6, 1A7, 1A8, 1A9, 1A10, 2B4, 2B7, 2B15, and 2B17 at 0.25 mg protein/mL. Incubations were conducted in duplicate at 37°C. The incubation mixture (0.2 mL, final volume with 1% methanol) consisted of Tris‐HCl buffer (100 mmol/L, pH 7.7 at 37°C), MgCl2 (10 mmol/L), EDTA (1 mmol/L), saccharic acid 1,4‐lactone (0.1 mmol/L), and UDPGA (8 mmol/L). […] Samples were subjected to centrifugation (920 g for 10 minutes at 10°C) and the supernatant fractions were analyzed by LC‐MS/MS to quantify the formation of ataluren‐O‐1β‐acyl glucuronide and loss of ataluren. […] The ataluren acyl glucuronide formation rate after 60 minutes incubation was calculated using the amount of metabolite formed (pmol) divided by the protein amount in the incubation sample (0.05 mg) and the incubation time (60 minutes).
Quantification of ataluren loss and ataluren‐O‐1β‐acyl glucuronide formation was carried out with an LC‐MS/MS system, which consisted of two Shimadzu LC‐10ADvp pumps, a SPD10‐AVP UV/Vis detector, a Shimadzu SILHTA autosampler, a Shimadzu DGU‐14A degasser, and a Sciex API 4000 QTRAP mass spectrometer equipped with a Turbo Ionspray ionization source that operated in positive ionization mode. […]

[2] = Glucuronidation in pooled human intestinal microsomes; format: in vitro ADME; conditions: intestinal microsomes 1 mg protein/mL, 10 μmol/L, 60 minutes, n = 1
Protocol: Ataluren at 10 μmol/L, was incubated (n = 1) with pooled human intestinal, lung, and kidney microsomes (1 mg protein/mL, preactivated with alamethicin) to evaluate if ataluren‐O‐1β‐acyl glucuronide will be formed in these extrahepatic tissues. Incubation mixtures and procedures were essentially the same as the above. The supernatant fractions were analyzed by LC‐MS/MS to quantify the formation of ataluren‐O‐1β‐acyl glucuronide and the loss of ataluren. Detailed LC‐MS/MS conditions are summarized in LC‐MS/MS Analysis section. […] The ataluren acyl glucuronide formation rate after 60 minutes incubation was calculated using the amount of metabolite formed (pmol) divided by the protein amount in the incubation sample ([…]) and the incubation time (60 minutes).
Quantification of ataluren loss and ataluren‐O‐1β‐acyl glucuronide formation was carried out with an LC‐MS/MS system, which consisted of two Shimadzu LC‐10ADvp pumps, a SPD10‐AVP UV/Vis detector, a Shimadzu SILHTA autosampler, a Shimadzu DGU‐14A degasser, and a Sciex API 4000 QTRAP mass spectrometer equipped with a Turbo Ionspray ionization source that operated in positive ionization mode. […] Ion transitions monitored were at m/z 285 → m/z 123 for ataluren, m/z 461 → m/z 285 for ataluren acyl glucuronide, and m/z 289 → m/z 127 for ataluren‐D4 (internal standard), respectively.

Compound: O=C(O)c1cccc(-c2noc(-c3ccccc3F)n2)c1 [ataluren, Ataluren]
- ataluren loss [1]: 6.2%
- ataluren loss [2]: 34.4%
